{"source": "paper PMC7180622", "about": "“PET Imaging of the Adenosine A2A Receptor in the Rotenone-Based Mouse Model of Parkinson’s Disease with [^18F]FESCH Synthesized by a Simplified Two-Step One-Pot Radiolabeling Strategy” (Molecules, 2020)", "key": {"[1]": {"target": "T1, adenosine A1 receptor (hA1R) (Homo sapiens, UniProt P30542)", "T1 construct": "gene ADORA1; membrane homogenates of stably transfected CHO-K1 cells", "T1 sequence (P30542 1-326)": "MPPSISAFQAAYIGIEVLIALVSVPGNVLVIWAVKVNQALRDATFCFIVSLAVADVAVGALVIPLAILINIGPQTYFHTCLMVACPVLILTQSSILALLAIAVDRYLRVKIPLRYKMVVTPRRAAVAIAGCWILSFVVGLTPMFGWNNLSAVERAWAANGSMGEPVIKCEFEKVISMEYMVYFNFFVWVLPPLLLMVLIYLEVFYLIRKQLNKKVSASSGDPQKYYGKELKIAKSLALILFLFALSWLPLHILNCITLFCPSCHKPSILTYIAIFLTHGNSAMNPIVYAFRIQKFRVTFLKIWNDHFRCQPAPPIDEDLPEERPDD", "experiment": "radioligand displacement with [3H]DPCPX", "assay_type": "binding"}, "[2]": {"target": "T2, adenosine A2A receptor (hA2AR) (Homo sapiens, UniProt P29274)", "T2 construct": "gene ADORA2A; membrane homogenates of stably transfected CHO-K1 cells", "T2 sequence (P29274 whole entry)": "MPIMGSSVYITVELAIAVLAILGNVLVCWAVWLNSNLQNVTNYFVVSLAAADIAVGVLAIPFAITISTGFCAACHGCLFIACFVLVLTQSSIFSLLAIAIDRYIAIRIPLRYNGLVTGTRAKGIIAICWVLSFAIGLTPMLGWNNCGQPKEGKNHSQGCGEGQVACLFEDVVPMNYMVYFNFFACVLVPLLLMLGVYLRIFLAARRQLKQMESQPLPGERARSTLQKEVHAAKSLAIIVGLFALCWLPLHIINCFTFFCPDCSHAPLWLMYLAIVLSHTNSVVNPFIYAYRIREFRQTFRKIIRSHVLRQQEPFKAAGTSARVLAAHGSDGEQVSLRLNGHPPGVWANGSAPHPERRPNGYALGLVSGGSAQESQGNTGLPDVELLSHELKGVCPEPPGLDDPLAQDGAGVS", "experiment": "radioligand displacement with [3H]ZM241385", "assay_type": "binding"}}, "data": [{"smiles": "Nc1nc2c(cnn2CCCc2ccc(OCCF)cc2)c2nc(-c3ccco3)nn12", "note": "[FESCH]", "values": [{"measurement": "Ki", "setting": "[1]", "result": "0.203 ± 0.04", "unit": "µM"}, {"measurement": "Ki", "setting": "[2]", "result": "0.0006 ± 0.0001", "unit": "µM"}]}]}
